Article PMC6368574, “Probing the Inhibition of Microtubule Affinity Regulating Kinase 4 by N-Substituted Acridones” (Scientific Reports, 2019)

Target: T1, recombinant MARK4 (Homo sapiens, UniProt Q96L34)
T1 construct: made in house; host or cells: bacterial cells (Luria-Bertani broth, IPTG induction)
T1 sequence (Q96L34 1-752): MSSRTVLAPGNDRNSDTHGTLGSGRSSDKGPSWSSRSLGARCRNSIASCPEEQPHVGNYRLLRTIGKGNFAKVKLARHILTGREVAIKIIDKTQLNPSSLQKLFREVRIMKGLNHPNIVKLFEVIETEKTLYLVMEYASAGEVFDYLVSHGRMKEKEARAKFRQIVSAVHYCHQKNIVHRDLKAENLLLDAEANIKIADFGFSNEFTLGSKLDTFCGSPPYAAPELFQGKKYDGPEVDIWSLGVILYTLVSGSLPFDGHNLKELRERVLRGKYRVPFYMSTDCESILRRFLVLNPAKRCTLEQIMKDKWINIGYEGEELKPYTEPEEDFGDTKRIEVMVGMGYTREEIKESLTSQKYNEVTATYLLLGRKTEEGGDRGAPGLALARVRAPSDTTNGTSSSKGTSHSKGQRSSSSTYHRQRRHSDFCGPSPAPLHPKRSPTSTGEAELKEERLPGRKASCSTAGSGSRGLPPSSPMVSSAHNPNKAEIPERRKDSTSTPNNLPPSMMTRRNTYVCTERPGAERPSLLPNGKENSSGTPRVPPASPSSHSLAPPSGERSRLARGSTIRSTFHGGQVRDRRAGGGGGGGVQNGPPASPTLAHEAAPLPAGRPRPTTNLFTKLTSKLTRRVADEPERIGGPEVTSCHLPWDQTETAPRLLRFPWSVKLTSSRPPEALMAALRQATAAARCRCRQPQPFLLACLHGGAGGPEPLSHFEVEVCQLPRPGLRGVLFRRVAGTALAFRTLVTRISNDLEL
Test: Isothermal titration calorimetry
Type: binding
Settings: for ITC binding in words: at lower stoichiometry, at high concentration they precipitate with MARK4; for Kd: read-out: Ka (converted)
Source text: In order to measure the actual binding affinity and stoichiometry of selected compounds with the recombinant MARK4, isothermal titration calorimetry (ITC) has been carried out. Negative heat impulses in the upper panel of each isotherm indicate exothermic nature of binding. The amount of heat produced as a result of each injection helps to deliver the molar ratio of studied compound to that of MARK4. Thermodynamic parameters associated with binding of MARK4-compounds (Ka, binding constant and ΔH, enthalpy change) are shown in Table 1.
Figure 5 ITC measurement showing the titration of selected acridone derivatives with recombinant MARK4. (Top) Raw data plot of heat produced against time for the titration of 1000–1500 µM (A) compound 7b, (B) compound 7d, (C) compound 7f, into 20–25 µM MARK4. (Bottom) Corresponding binding isotherm obtained after integration of peak area and normalization to yield a plot of molar enthalpy change against each compound-MARK4 ratio.
ITC experiments were performed on a VP-ITC microcalorimeter (MicroCal, Inc. GE, MicroCal, USA) by following our previously published protocols[41],[47]. For sample preparation, recombinant MARK4 was extensively dialyzed in 20 mM Tris buffer, pH 8.5 and the working solutions of acridone derivatives were prepared in last dialyzing buffer. The titration data so obtained was analyzed with the help of MicroCal Origin 7.0 software provided with the instrument. The thermodynamic parameters of binding such as association constant (Ka), stoichiometry of binding (n), and enthalpy change (ΔH) were determined by fitting the binding isotherm into the ‘one-set of sites’ binding model.

Compound | ITC binding in words | ΔH (from ITC, single-site fitting) | Kd (from ITC, single-site fitting) [µM]
COC(=O)Cn1c2ccccc2c(=O)c2cc(C)ccc21 [Compound 5, Methyl 2-(2-methyl-9-oxoacridin-10(9H)-yl)acetate] | do not show significant binding | – | –
Cc1ccc(NC(=O)Cn2c3ccccc3c(=O)c3cc(C)ccc32)cc1 [Compound 7f, 2-(2-Methyl-9-oxoacridin-10(9H)-yl)-N-(p-tolyl)acetamide] | – | −3.01 × 10^4 ± 590.10 cal/mol | 7.41
Cc1ccc2c(c1)c(=O)c1ccccc1n2CC(=O)NCc1ccccc1 [Compound 7b, N-benzyl-2-(2-methyl-9-oxoacridin-10(9H)-yl)acetamide] | – | – | 15.6
COc1ccccc1NC(=O)Cn1c2ccccc2c(=O)c2cc(C)ccc21 [Compound 7h, N-(2-methoxyphenyl)-2-(2-methyl-9-oxoacridin-10(9H)-yl)acetamide] | do not show significant binding | – | –
COc1ccc(CNC(=O)Cn2c3ccccc3c(=O)c3cc(C)ccc32)cc1 [Compound 7d, N-(4-methoxybenzyl)-2-(2-methyl-9-oxoacridin-10(9H)-yl)acetamide] | – | – | 15.8
